Laboratory results: patent US20100047907A1, “METHODS OF TRANSPORTING EPITHELIAL CELL MONOLAYERS” (Absorption System Group LLC, priority 2008, published 2010)
Values belong to the compound of their own block, whether it stands above or below them.

Tests used:
P-glycoprotein (PGP) [1] = molecular target: T1, P-glycoprotein (PGP) (Homo sapiens, UniProt P08183); assay: in vitro; conditions: Caco-2, pH 7.4, Pgp transport
P-gp (PGP) = P-gp (PGP) (Homo sapiens, UniProt P08183); assay: in vitro; conditions: Caco-2, pH 7.4, Pgp transport, Papp B->A
PGP [2] = molecular target: T2, PGP (Homo sapiens, UniProt P08183); assay: in vitro; conditions: Caco-2, pH 7.4, Pgp transport
P-gp [3] = assay: Bidirectional digoxin Pgp transport across MDCK monolayers; conditions: dog, MDCK-MDR1, pH 7.4, Pgp transport
P-glycoprotein (PGP) [4] = molecular target: T1, P-glycoprotein (PGP); assay: Bidirectional digoxin Pgp transport across C2BBe1 monolayers; conditions: Caco-2, pH 7.4
PGP [5] = molecular target: T2, PGP; assay: Bidirectional digoxin Pgp transport across Caco-2 monolayers; conditions: Caco-2, pH 7.4
P-gp [6] = assay: Bidirectional digoxin Pgp transport across MDR-MDCK monolayers; conditions: human, MDCK-MDR1, pH 7.4, Pgp transport
[7] = test system: human P-glycoprotein (PGP); assay: as above; conditions: dog, MDCK-MDR1, pH 7.4, Pgp transport; for Papp A→B at 2 h, 10 µM / Papp B→A at 2 h, 10 µM: assayed day 12
in vitro = conditions: human, Caco-2, pH 7.4, Passive diffusion
Caco-2 cell monolayers = assay: Sodium butyrate supplementation of medium of Caco-2 monolayers, 7-day culture procedure, simulated transport; type: cell-based, human
Description: Caco-2 cells were used to assess whether cells grown using the 7-day culture procure were likely to yield intact cell monolayers following shipment. To shorten the period required for cell monolayer formation the seeding density for each Transwell® insert was increased to 240,000 cells per cm^2 (rather than 60,000 cells/cm^2). Once plated, the cells were incubated overnight at 37° C. with 0.5 mL of medium (90% Dulbecco's Modified Eagle Medium supplemented with 10% fetal bovine serum) in the apical chamber and 1.5 mL of medium in the basolateral chamber to allow for attachment to the Transwell®. Adherent cells were provided with fresh cell culture medium for the next two days. The cells were then left on a laboratory bench, at room temperature, overnight to simulate transport conditions. In order to simulate receipt of transported cells, the next day the Transwell® inserts were removed from tissue culture plates containing 0.75% agarose medium and moved to a new plate containing fresh tissue culture medium. The cell monolayers were then incubated for 3 or 6 days under normal growth conditions before they were tested for membrane integrity and permeability. […]

[8] = Table 9 control, assayed day 10
[9] = Table 9 shipped, 0.75% agarose media basolateral only, assayed day 10
[10] = Table 12 control, 7 d in culture
[11] = Table 12 shipped overnight by air, 0.75% agarose medium basolateral only, 9 d in culture
[12] = Table 10 control, assayed day 12
[13] = Table 13 MDR1-MDCK control, 7 d in culture
[14] = Table 13 MDR1-MDCK shipped overnight by air, 0.75% agarose medium basolateral only, 10 d in culture
[15] = air cargo shipped (three days in transit), 0.75% agarose media basolateral only, assayed day 12
[16] = Table 5 control, not shipped, assayed 7 D
[17] = Table 6 shipped at 5 D, 0.5% agarose medium basolateral only, assayed 10 D
[18] = Table 7 shipped at day 6, 0.5% agarose medium basolateral only
[19] = shipped, 0.5% agarose medium apical only, Table 5 lower block c1, assayed 7 D
[20] = shipped, 0.5% agarose medium apical only, Table 5 lower block c2, assayed 7 D
[21] = shipped, 0.5% agarose medium apical only, Table 5 upper block c1, assayed 7 D
[22] = shipped, 0.5% agarose medium apical only, Table 5 upper block c2, assayed 7 D
[23] = shipped, 0.5% agarose medium apical only, Table 5 upper block c4, assayed 7 D
[24] = shipped, 0.5% agarose medium basolateral only, assayed 7 D

T2 sequence (P08183 whole entry): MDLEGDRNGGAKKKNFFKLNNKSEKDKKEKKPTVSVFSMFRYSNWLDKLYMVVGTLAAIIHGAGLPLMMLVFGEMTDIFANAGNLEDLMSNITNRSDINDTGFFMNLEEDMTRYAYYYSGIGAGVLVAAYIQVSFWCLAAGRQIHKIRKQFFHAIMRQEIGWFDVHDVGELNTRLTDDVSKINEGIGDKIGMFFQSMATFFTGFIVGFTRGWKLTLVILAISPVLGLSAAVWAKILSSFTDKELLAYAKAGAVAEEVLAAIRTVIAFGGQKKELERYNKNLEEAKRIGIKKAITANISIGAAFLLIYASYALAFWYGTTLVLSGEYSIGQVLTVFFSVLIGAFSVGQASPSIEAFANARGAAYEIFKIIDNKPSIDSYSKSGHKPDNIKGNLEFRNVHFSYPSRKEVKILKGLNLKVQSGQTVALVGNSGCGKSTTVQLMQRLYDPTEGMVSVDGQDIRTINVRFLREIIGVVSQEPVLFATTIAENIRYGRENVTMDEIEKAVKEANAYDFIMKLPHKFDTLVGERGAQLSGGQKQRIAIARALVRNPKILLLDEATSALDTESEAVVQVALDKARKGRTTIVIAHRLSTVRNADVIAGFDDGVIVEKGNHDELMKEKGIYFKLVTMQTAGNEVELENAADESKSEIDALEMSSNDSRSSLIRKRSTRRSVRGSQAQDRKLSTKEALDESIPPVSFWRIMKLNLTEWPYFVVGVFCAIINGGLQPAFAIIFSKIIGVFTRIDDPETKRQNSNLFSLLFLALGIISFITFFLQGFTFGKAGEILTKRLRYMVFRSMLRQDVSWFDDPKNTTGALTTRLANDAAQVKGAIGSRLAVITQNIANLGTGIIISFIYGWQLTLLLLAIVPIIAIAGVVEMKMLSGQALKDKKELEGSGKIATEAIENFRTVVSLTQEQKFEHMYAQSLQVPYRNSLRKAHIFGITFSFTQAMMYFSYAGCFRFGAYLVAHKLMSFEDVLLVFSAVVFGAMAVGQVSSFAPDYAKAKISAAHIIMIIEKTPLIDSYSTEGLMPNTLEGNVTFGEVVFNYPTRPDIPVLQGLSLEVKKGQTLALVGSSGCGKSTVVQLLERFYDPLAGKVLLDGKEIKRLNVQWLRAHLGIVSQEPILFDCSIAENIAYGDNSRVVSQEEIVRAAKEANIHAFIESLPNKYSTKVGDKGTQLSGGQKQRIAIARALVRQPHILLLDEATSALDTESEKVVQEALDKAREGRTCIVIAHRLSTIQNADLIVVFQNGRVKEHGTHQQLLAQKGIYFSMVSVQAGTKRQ
T1 sequence (P08183 whole entry): as above
Sequence of P-gp (PGP) (P08183 whole entry): as above

SMILES: C[C@H]1O[C@@H](O[C@H]2[C@@H](O)C[C@H](O[C@H]3[C@@H](O)C[C@H](O[C@H]4CC[C@@]5(C)[C@H](CC[C@@H]6[C@@H]5C[C@@H](O)[C@]5(C)[C@@H](C7=CC(=O)OC7)CC[C@]65O)C4)O[C@@H]3C)O[C@@H]2C)C[C@H](O)[C@@H]1O [Digoxin, digoxin]
Papp B→A at 2 h, 10 µM (P-glycoprotein (PGP) [1]): 6.86 ×10⁻⁶ cm/s
Papp B→A at 120 min, 10 µM (P-gp (PGP)): 21.9 ×10⁻⁶ cm/s
Papp A→B at 2 h, 10 µM (PGP [2]; Papp A->B): 1.13 ×10⁻⁶ cm/s
Papp B→A at 120 min, 10 µM (PGP [2]; Papp B->A): 21.6 ×10⁻⁶ cm/s
Papp B→A at 2 h, 10 µM (PGP [2]; Papp B->A): 15.2 ×10⁻⁶ cm/s
Papp A→B at 2 h, 10 µM (P-gp [3]; [8]): 0.2 ×10⁻⁶ cm/s
Papp A→B at 2 h, 10 µM (P-gp [3]; [9]): 0.04 ×10⁻⁶ cm/s
Papp A→B at 2 h, 10 µM (P-gp [3]; [10]): 0.12 ×10⁻⁶ cm/s
Papp A→B at 2 h, 10 µM (P-gp [3]; [11]): 0.16 ×10⁻⁶ cm/s
Papp B→A at 2 h, 10 µM (P-gp [3]; [8]): 0.94 ×10⁻⁶ cm/s
Papp B→A at 2 h, 10 µM (P-gp [3]; [9]): 3.83 ×10⁻⁶ cm/s
Papp B→A at 2 h, 10 µM (P-gp [3]; [10]): 6.92 ×10⁻⁶ cm/s
Papp B→A at 2 h, 10 µM (P-gp [3]; [11]): 7.44 ×10⁻⁶ cm/s
Papp B→A at 2 h, 10 µM (P-glycoprotein (PGP) [4]): 5.67 ×10⁻⁶ cm/s
Papp A→B at 120 min, 10 µM (PGP [5]): 0.66 ×10⁻⁶ cm/s
Papp A→B at 2 h, 10 µM (P-gp [6]; [12]): 0.04 ×10⁻⁶ cm/s
Papp A→B at 2 h, 10 µM (P-gp [6]; [13]): 0.02 ×10⁻⁶ cm/s
Papp A→B at 2 h, 10 µM (P-gp [6]; [14]): 0.09 ×10⁻⁶ cm/s
Papp A→B at 2 h, 10 µM (P-gp [6]; [15]): 0.07 ×10⁻⁶ cm/s
Papp B→A at 2 h, 10 µM (P-gp [6]; [12]): 10.9 ×10⁻⁶ cm/s
Papp B→A at 2 h, 10 µM (P-gp [6]; [13]): 12.6 ×10⁻⁶ cm/s
Papp B→A at 2 h, 10 µM (P-gp [6]; [14]): 20.1 ×10⁻⁶ cm/s
Papp B→A at 2 h, 10 µM (P-gp [6]; [15]): 13.1 ×10⁻⁶ cm/s
Papp A→B at 120 min, 10 µM [7, 16]: 0.1 ×10⁻⁶ cm/s
Papp A→B at 120 min, 10 µM ([7]; Table 6 control, assayed 10 D): 0.15 ×10⁻⁶ cm/s
Papp A→B at 120 min, 10 µM [7, 17]: 0.21 ×10⁻⁶ cm/s
Papp A→B at 2 h, 10 µM ([7]; Table 7 control): 0.15 ×10⁻⁶ cm/s
Papp A→B at 2 h, 10 µM [7, 18]: 0.09 ×10⁻⁶ cm/s
Papp A→B at 120 min, 10 µM [7, 19]: 0.18 ×10⁻⁶ cm/s
Papp A→B at 120 min, 10 µM [7, 20]: 0.09 ×10⁻⁶ cm/s
Papp A→B at 120 min, 10 µM [7, 21]: 0.11 ×10⁻⁶ cm/s
Papp A→B at 120 min, 10 µM [7, 22]: 0.06 ×10⁻⁶ cm/s
Papp A→B at 120 min, 10 µM [7, 23]: 0.07 ×10⁻⁶ cm/s
Papp A→B at 120 min, 10 µM [7, 24]: 0.06 ×10⁻⁶ cm/s
Papp B→A at 120 min, 10 µM [7, 16]: 6.7 ×10⁻⁶ cm/s
Papp B→A at 120 min, 10 µM ([7]; Table 6 control, assayed 10 D): 10.8 ×10⁻⁶ cm/s
Papp B→A at 120 min, 10 µM [7, 17]: 9.14 ×10⁻⁶ cm/s
Papp B→A at 2 h, 10 µM ([7]; Table 7 control): 6.37 ×10⁻⁶ cm/s
Papp B→A at 2 h, 10 µM [7, 18]: 6.4 ×10⁻⁶ cm/s
Papp B→A at 120 min, 10 µM [7, 19]: 7.05 ×10⁻⁶ cm/s
Papp B→A at 120 min, 10 µM [7, 20]: 8.27 ×10⁻⁶ cm/s
Papp B→A at 120 min, 10 µM [7, 21]: 5.24 ×10⁻⁶ cm/s
Papp B→A at 120 min, 10 µM [7, 22]: 6.19 ×10⁻⁶ cm/s
Papp B→A at 120 min, 10 µM ([7]; shipped, 0.5% agarose medium apical only, Table 5 upper block c3, assayed 7 D): 4.65 ×10⁻⁶ cm/s
Papp B→A at 120 min, 10 µM [7, 23]: 6.39 ×10⁻⁶ cm/s
Papp B→A at 120 min, 10 µM [7, 24]: 6.09 ×10⁻⁶ cm/s

Papp A→B at 2 h (in vitro): 14.2 ×10⁻⁶ cm/s
SMILES: CC(C)NCC(O)COc1cccc2[nH]ccc12 (stereo not shown) [Pindolol, pindolol]

SMILES: CCCC(=O)[O-].[Na+] [sodium butyrate]
effect on cell monolayer integrity and permeability following transport (Caco-2 cell monolayers; 4 mM in medium for three days prior to simulated transport, not following transport): adversely affects monolayer integrity and permeability following transport
effect on cell monolayer integrity or permeability (Caco-2 cell monolayers; added to tissue culture medium following simulated transport, not prior to transport): does not disrupt cell monolayer integrity or permeability
